ChEMBL document CHEMBL1201862, “PubChem BioAssay data set” (2004)
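Where inhibition never reached the appropriate level, the endpoint shown equals the highest concentration tested. Otherwise, values were interpolated linearly from a five-concentration, 48-hour dose response in 96-well plates. The concentration for 50% growth inhibition is given as GI50.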 Activity calls are given as the source filed them. No stated cut-off is given here; in the data, active = GI50 up to about 1.1 µM and inactive = higher.

Experiments:
Test in all cases: growth of human tumour cells (NCI), 48 h
SNB-78 = test system: SNB-78
DLD-1 = test system: DLD-1
LXFL 529 = test system: LXFL 529
KM-20L2 = test system: KM-20L2
M19-MEL = test system: M19-MEL
HOP-18 = test system: HOP-18
XF498 = test system: XF498
DMS-114 = test system: DMS-114
RXF 631 = test system: RXF 631

| Structure (SMILES) | GI50 (SNB-78) | GI50 (DLD-1) | GI50 (LXFL 529) | GI50 (KM-20L2) | GI50 (M19-MEL) | GI50 (HOP-18) | GI50 (XF498) | GI50 (DMS-114) | GI50 (RXF 631) |
| --- | --- | --- | --- | --- | --- | --- | --- | --- | --- |
| COc1ccc(Cc2cc(OC)c(OC)c(OC)c2)cc1 | 3.34 µM (inactive) | 0.33 µM (active) | 0.541 µM (active) | 0.181 µM (active) | – | – | – | – | – |
| S=P(N1CCCC1)(N1CC1)N1CC1 | > 100 µM (inactive) | > 100 µM (inactive) | – | > 100 µM (inactive) | > 100 µM (inactive) | > 100 µM (inactive) | > 100 µM (inactive) | 99.5 µM (inactive) | – |
| NC1=NN(c2ccccc2)C(=O)C1C(=O)CCC(=O)Nc1cccc(C(F)(F)F)c1 (stereo unspecified) | > 100 µM (inactive) | 48.8 µM (inactive) | 36.8 µM (inactive) | 72.6 µM (inactive) | > 100 µM (inactive) | > 100 µM (inactive) | – | > 100 µM (inactive) | > 100 µM (inactive) |
| C/C(CN1C(=O)c2ccccc2C1=O)=N\NS(=O)(=O)c1ccc(Br)cc1 | > 100 µM (inactive) | > 100 µM (inactive) | > 100 µM (inactive) | > 100 µM (inactive) | > 100 µM (inactive) | > 100 µM (inactive) | – | 10.9 µM (inactive) | – |
| CC1=CC2C(=O)N(c3ccccc3)C(=O)C2CC1n1[nH]c(=O)n(Cc2ccccc2)c1=O (stereo unspecified) | > 100 µM (inactive) | > 100 µM (inactive) | > 100 µM (inactive) | > 100 µM (inactive) | – | > 100 µM (inactive) | > 100 µM (inactive) | – | – |
| N#CC(NNC(=O)c1ccccc1O)c1ccc(O)cc1 (stereo unspecified) | – | – | 4.06 µM (inactive) | 23.4 µM (inactive) | 5.38 µM (inactive) | 9.1 µM (inactive) | – | 2.3 µM (inactive) | – |
| CC(C)(C)/N=C1/CC(C)(C)c2ccccc2/C(=N\c2ccccc2)S1 | 41.5 µM (inactive) | 26.3 µM (inactive) | 29.9 µM (inactive) | 31.8 µM (inactive) | 36 µM (inactive) | – | 21.1 µM (inactive) | 26.7 µM (inactive) | – |
| CN(C)CC1CC/C(=C\c2ccc(O)cc2)C1=O (stereo unspecified) | 11.4 µM (inactive) | 2.58 µM (inactive) | 1.85 µM (inactive) | 9.55 µM (inactive) | 2.78 µM (inactive) | 6.35 µM (inactive) | 5.82 µM (inactive) | 10 µM (inactive) | – |
| O=C1C=C(Br)C(=O)C12CCc1ccccc12 (stereo unspecified) | 22.6 µM (inactive) | 9.48 µM (inactive) | 4.45 µM (inactive) | 26.7 µM (inactive) | 19 µM (inactive) | 7.53 µM (inactive) | 15.3 µM (inactive) | 20.7 µM (inactive) | – |
| O=C(CC(=O)n1nc(-c2ccccc2)c(/N=N/c2ccccc2Cl)c1-c1ccccc1)Nc1ccc(Cl)cc1 | – | > 43.6 µM (inactive) | > 100 µM (inactive) | > 57.3 µM (inactive) | 21.7 µM (inactive) | > 100 µM (inactive) | > 100 µM (inactive) | > 41.7 µM (inactive) | – |
| CN(CO)c1nc(N(C)CO)nc(N(C)CO)n1 [TRIMELAMOL] | 9.77 µM (inactive) | 10.2 µM (inactive) | – | 8.85 µM (inactive) | 8.04 µM (inactive) | 18.8 µM (inactive) | 5.75 µM (inactive) | – | – |
| Cc1nc2ccccc2nc1NS(=O)(=O)c1ccc(N)cc1 | > 100 µM (inactive) | > 100 µM (inactive) | > 100 µM (inactive) | > 100 µM (inactive) | > 100 µM (inactive) | > 100 µM (inactive) | > 100 µM (inactive) | – | > 100 µM (inactive) |
| Cc1ccc(C2=C(c3ccccc3)C(Br)(c3ccccc3)C(c3ccccc3)=C2c2ccc(C)cc2)cc1 | > 100 µM (inactive) | > 100 µM (inactive) | > 100 µM (inactive) | > 100 µM (inactive) | > 100 µM (inactive) | > 100 µM (inactive) | > 100 µM (inactive) | > 100 µM (inactive) | – |
| N#CCCC(C#N)(C#N)CCC#N | – | – | > 100 µM (inactive) | > 100 µM (inactive) | > 100 µM (inactive) | – | > 100 µM (inactive) | > 100 µM (inactive) | – |
| Nc1nc(O)c([N+](=O)[O-])c(NCCOCP(=O)(O)O)n1 | > 100 µM (inactive) | > 100 µM (inactive) | > 100 µM (inactive) | > 100 µM (inactive) | > 100 µM (inactive) | > 100 µM (inactive) | > 100 µM (inactive) | – | – |
| CC(C)C(Sc1nc(-c2ccccc2)c(-c2ccccc2)[nH]1)C(=O)N/N=C/c1ccc(Cl)cc1 (stereo unspecified) | 28.7 µM (inactive) | 36.1 µM (inactive) | 32.1 µM (inactive) | 20.6 µM (inactive) | 19.4 µM (inactive) | – | – | 24.3 µM (inactive) | – |
| CO/S(=N/S(=O)(=O)c1ccccc1)c1ccccc1[N+](=O)[O-] (stereo unspecified) | – | > 100 µM (inactive) | > 100 µM (inactive) | > 100 µM (inactive) | > 100 µM (inactive) | > 100 µM (inactive) | > 100 µM (inactive) | – | > 100 µM (inactive) |
| O=C(c1ccc([N+](=O)[O-])cc1[N+](=O)[O-])N(/N=C/C=C/c1ccccc1)c1nnc(-c2ccccc2)c(-c2ccccc2)n1 | – | 34.8 µM (inactive) | – | > 100 µM (inactive) | 36.7 µM (inactive) | – | 17.6 µM (inactive) | 29.2 µM (inactive) | – |
| O=c1[nH]c(=O)n(C2CC(O)C(CO)O2)cc1COCC(F)(F)F (stereo unspecified) | > 100 µM (inactive) | > 100 µM (inactive) | > 100 µM (inactive) | > 100 µM (inactive) | > 100 µM (inactive) | – | > 100 µM (inactive) | > 100 µM (inactive) | > 100 µM (inactive) |
| O=C(Nc1cc(Cl)ccc1Cl)c1cc2ccccc2oc1=O | – | > 100 µM (inactive) | – | > 100 µM (inactive) | > 100 µM (inactive) | 20.9 µM (inactive) | – | 78 µM (inactive) | – |
| CCP(C)(=O)CC | > 100 µM (inactive) | > 100 µM (inactive) | > 100 µM (inactive) | > 100 µM (inactive) | > 100 µM (inactive) | > 100 µM (inactive) | > 100 µM (inactive) | > 100 µM (inactive) | > 100 µM (inactive) |
| COc1cccc2c1C1(O)C2CCCCCCCCCC12OCCCO2 (stereo unspecified) | > 100 µM (inactive) | 6.64 µM (inactive) | 45.6 µM (inactive) | > 100 µM (inactive) | – | > 100 µM (inactive) | – | > 100 µM (inactive) | – |
| C/C(=N\N=C(/S)N(C)C)c1cccc[n+]1[O-] | > 100 µM (inactive) | 2.18 µM (inactive) | 0.466 µM (active) | 5.61 µM (inactive) | > 100 µM (inactive) | > 100 µM (inactive) | – | 0.482 µM (active) | > 100 µM (inactive) |
| O=C1C[C@H]2CC3(CC[C@H]2CN1)OCCO3 | > 100 µM (inactive) | > 100 µM (inactive) | > 100 µM (inactive) | – | > 100 µM (inactive) | – | > 100 µM (inactive) | – | – |
| c1ccc(SCCCC(Sc2ccccc2)Sc2ccccc2)cc1 | > 100 µM (inactive) | > 100 µM (inactive) | > 100 µM (inactive) | > 100 µM (inactive) | > 100 µM (inactive) | – | > 100 µM (inactive) | > 100 µM (inactive) | – |
| Cc1ccccc1C(=O)c1ccccc1O | > 100 µM (inactive) | > 100 µM (inactive) | > 100 µM (inactive) | > 100 µM (inactive) | > 100 µM (inactive) | > 100 µM (inactive) | > 100 µM (inactive) | > 100 µM (inactive) | > 100 µM (inactive) |
